Measured values: patent EP4733306A1, “NOVEL MODIFIED TRINUCLEOTIDE CAPPING DERIVATIVE, AND MRNA INTO WHICH CAPPING DERIVATIVE IS INTRODUCED” (Elonova Co., Ltd., priority 2023, dated 2025)
“Also recorded” adds a separate entry of the source.

Experiments:
HEK 293 cells = assay: Luciferase (antigen protein) expression from capped Luciferase mRNA transfected into HEK 293 cells, luminescence readout; type: cell-based
Experimental: HEK 293 cells were cultured in a 60 mL culture plate containing DMEM supplemented with 10% FBS and 1% pen/strep. On the day prior to transfection, the cells were detached using trypsin and resuspended in new medium. The cells were seeded into a 96-well plate. On the next day, when the cells reached 70% confluence, the transfection mixture was prepared and transfection was performed.
The purified mRNA was quantified using a nanodrop spectrophotometer, and the transcription yield for each rNTP combination was compared. For cell transfection, 500 ng of each mRNA was collected and mixed with 5 µL of Opti-MEM. Separately, 0.5 µL of Lipofectamine was mixed with 5 µL of Opti-MEM in another tube and incubated at room temperature for 10 minutes. Then, the mRNA and Lipofectamine mixtures were combined in the same tube and incubated for an additional 5 minutes at room temperature. Finally, the transfection mixture was added to the cells and incubated for 24 hours.
(§1) After the incubation period, the medium was removed, and the cells were lysed using 50 µL of 1X lysis buffer. The cell lysate was transferred into microcentrifuge tubes. For luciferase luminescence analysis, 100 µL of luciferin substrate was added to each sample in a 96-well white plate. Then, 20 µL of each cell lysate sample was added and mixed by pipetting. Finally, the luminescence of luciferase was recorded using a luminometer instrument.
HEK 293 cells were cultured in a 60 mL culture plate containing DMEM supplemented with 10% FBS and 1% pen/strep. On the day prior to transfection, the cells were detached using trypsin and resuspended in fresh medium. The cells were then seeded in a 96-well plate. On the following day, when the cells reached 70% confluence, the transfection mixture was prepared and transfection was performed.
as §1, with “taken for” for “added to”

T7 RNA polymerase = T7 RNA polymerase (Escherichia phage T7, UniProt P00573); assay: In vitro transcription of Luciferase template with T7 RNA polymerase in the presence of the capping material (gel); type: biochemical; details: compared with CleanCap (cap 1 commercial)
T7 RNA polymerase, sequence (P00573 whole entry): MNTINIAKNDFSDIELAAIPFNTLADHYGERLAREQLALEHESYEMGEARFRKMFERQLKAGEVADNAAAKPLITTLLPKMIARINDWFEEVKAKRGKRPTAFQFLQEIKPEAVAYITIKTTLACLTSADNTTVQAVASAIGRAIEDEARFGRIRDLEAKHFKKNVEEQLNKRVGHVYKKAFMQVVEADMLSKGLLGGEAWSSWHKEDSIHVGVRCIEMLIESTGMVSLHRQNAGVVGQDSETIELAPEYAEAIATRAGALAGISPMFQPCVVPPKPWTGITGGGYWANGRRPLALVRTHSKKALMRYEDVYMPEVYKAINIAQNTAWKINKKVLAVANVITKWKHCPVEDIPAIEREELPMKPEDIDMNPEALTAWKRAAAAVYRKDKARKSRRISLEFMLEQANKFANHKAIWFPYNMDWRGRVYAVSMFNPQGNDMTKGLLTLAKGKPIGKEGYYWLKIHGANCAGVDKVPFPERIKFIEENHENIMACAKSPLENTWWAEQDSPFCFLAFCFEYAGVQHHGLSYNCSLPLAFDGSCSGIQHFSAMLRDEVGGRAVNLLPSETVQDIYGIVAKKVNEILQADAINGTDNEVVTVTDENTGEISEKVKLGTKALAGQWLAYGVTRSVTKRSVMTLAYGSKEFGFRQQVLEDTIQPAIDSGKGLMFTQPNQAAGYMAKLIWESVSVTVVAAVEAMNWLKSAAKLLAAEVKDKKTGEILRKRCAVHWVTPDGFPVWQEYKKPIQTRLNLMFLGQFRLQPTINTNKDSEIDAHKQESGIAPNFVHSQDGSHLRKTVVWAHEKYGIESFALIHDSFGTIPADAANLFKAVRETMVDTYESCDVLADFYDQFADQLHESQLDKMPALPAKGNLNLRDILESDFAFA
Experimental: The concentration of the luciferase template was measured using a nanodrop spectrophotometer. For each transcription reaction, 100 ng of template in 1 µL was placed into a microcentrifuge tube. Then, 1.5 µL of 10X transcription buffer (400 mM Tris-HCl, 60 mM MgCl2, 10 mM DTT, 20 mM spermidine) and 1.5 µL of 100 mM DTT were added to the tube. rATP, rCTP, and rUTP were each used (1 µL, 10 mM). For cap-dependent transcription of luciferase, rGTP was used (1 µL, 2.5 mM). The ratio of capping material was maintained at four times higher than rGTP so as to provide mRNA capped at ≥80%. Accordingly, 1 µL of capping material (10 mM) was added. RNase inhibitor (0.5 µL, 40 U/µL) and T7 RNA polymerase (1 µL, 50 U/µL) were added. Nuclease-free water (4.5-5.5 µL) was added to bring the final volume of the reaction to 15 µL. In the case of modified rNTPs, 10 mM stock solutions were prepared and the corresponding derivatives were added in place of rCTP and rUTP. The reaction was incubated at 37°C for 1 hour, and after 1 hour, 1.8 µL of 10X DNase I buffer (10 mM Tris-HCl, 2.5 mM MgCl2, 0.5 mM CaCl2) and 1 µL of DNase I (2 U/µL) were added to the reaction and incubated for an additional 15 minutes at 37°C to remove all DNA templates.

[1] = Luciferase mRNA capped with the analog, compared with Luciferase mRNA introduced with CleanCap (Luc mRNA Cap1)
[2] = Luciferase mRNA capped with the analog, compared with mRNA introduced with ARCA cap (cap 0) and CleanCap (cap 1 commercial), HEK 293

Row | Compound | antigen protein expression efficiency (HEK 293 cells; [2]) | also measured
1 | CO[C@@H]1[C@H](OP(=O)(O)OC[C@H]2O[C@@H](n3cnc4c(=O)[nH]c(N)nc43)[C@H](O)[C@@H]2O)[C@@H](COP(=O)(O)OP(=O)(O)OP(=O)(O)OC[C@H]2O[C@@H](n3c[n+](Cc4ccccc4)c4c(=O)[nH]c(N)nc43)[C@H](O)[C@@H]2O)O[C@H]1n1cnc2c(N)ncnc21 [BzCap1, Guanosine N7-benzyl trinucleotide Cap1] | higher | antigen protein expression efficiency (HEK 293 cells; [1]): higher; antigen protein expression efficiency (HEK 293 cells; mRNA using natural rNTPs, compared with CleanCap, HEK 293): more efficient
2 | CO[C@@H]1[C@H](OP(=O)(O)OC[C@H]2O[C@@H](n3cnc4c(=O)[nH]c(N)nc43)[C@H](O)[C@@H]2O)[C@@H](COP(=O)(O)OP(=O)(O)OP(=O)(O)OC[C@H]2O[C@@H](n3c[n+](Cc4ccc(Cl)cc4)c4c(=O)[nH]c(N)nc43)[C@H](O)[C@@H]2O)O[C@H]1n1cnc2c(N)ncnc21 [^4-ClBn7GpppAmpG, Guanosine N7-4-Cl-benzyl trinucleotide Cap1] | higher | –
3 | CO[C@@H]1[C@H](OP(=O)(O)OC[C@H]2O[C@@H](n3cnc4c(=O)[nH]c(N)nc43)[C@H](O)[C@@H]2O)[C@@H](COP(=O)(O)OP(=O)(O)OC[C@H]2O[C@@H](n3c[n+](Cc4ccccc4)c4c(=O)[nH]c(N)nc43)[C@H](O)[C@@H]2O)O[C@H]1n1cnc2c(N)ncnc21 [^Bn7GppAmpG, Guanosine N7-benzyl trinucleotide diphosphate Cap1] | higher | –
4 | CO[C@@H]1[C@H](OP(=O)(O)OC[C@H]2O[C@@H](n3cnc4c(=O)[nH]c(N)nc43)[C@H](O)[C@@H]2O)[C@@H](COP(=O)(O)OP(=O)(O)OP(=O)(O)OC[C@H]2O[C@@H](n3c[n+](Cc4ccccc4)c4c(=O)[nH]cnc43)[C@H](O)[C@@H]2O)O[C@H]1n1cnc2c(N)ncnc21 [^Bn7IpppAmpG, Inosine N7-benzyl trinucleotide Cap1] | higher | –
5 | L-Guanosine N7-benzyl trinucleotide Cap1 [^Bn7LGpppAmpG] | higher | –
6 | CO[C@@H]1[C@H](OP(=O)(O)OC[C@H]2O[C@@H](n3cnc4c(=O)[nH]c(N)nc43)[C@H](O)[C@@H]2O)[C@@H](COP(=O)(O)OP(=O)(O)OP(=O)(O)OC[C@H]2O[C@@H](n3c[n+](Cc4cccs4)c4c(=O)[nH]c(N)nc43)[C@H](O)[C@@H]2O)O[C@H]1n1cnc2c(N)ncnc21 [ThioCap1, Guanosine N7-(thiophen-2-ylmethyl) trinucleotide Cap1 analog] | – | antigen protein expression efficiency (HEK 293 cells; [1]): higher; antigen protein expression efficiency (HEK 293 cells; compared with CleanCap mRNA (Luc mRNA CAP1), in both mRNA using natural rNTPs and mRNA with pseudouridine triphosphate instead of rUTP, HEK 293, 24 hours, listed as ThioCapl): more efficient; also recorded: higher; transcription efficiency (T7 RNA polymerase): similar
7 | CO[C@@H]1[C@H](OP(=O)(O)OC[C@H]2O[C@@H](n3cnc4c(=O)[nH]c(N)nc43)[C@H](O)[C@@H]2O)[C@@H](COP(=O)(O)OP(=O)(O)OC[C@H]2O[C@@H](n3c[n+](Cc4ccc(Cl)cc4)c4c(=O)[nH]c(N)nc43)[C@H](O)[C@@H]2O)O[C@H]1n1cnc2c(N)ncnc21 [^4-ClBn7GppAmpG, Guanosine N7-4-Cl-benzyl trinucleotide diphosphate Cap1] | higher | –
8 | CO[C@@H]1[C@H](OP(=O)(O)OC[C@H]2O[C@@H](n3cnc4c(=O)[nH]c(N)nc43)[C@H](O)[C@@H]2O)[C@@H](COP(=O)(O)OP(=O)(S)OP(=O)(O)OC[C@H]2O[C@@H](n3c[n+](Cc4ccc(Cl)cc4)c4c([O-])nc(N)nc43)[C@H](O)[C@@H]2O)O[C@H]1n1cnc2c(N)ncnc21 (single isomer, unassigned) [^4-ClBn7GppspAmpG (D2), Guanosine N7-4-Cl-benzyl β-phosphorothioate trinucleotide Cap1] | higher | –
9 | CO[C@@H]1[C@H](OP(=O)(O)OC[C@H]2O[C@@H](n3cnc4c(=O)[nH]c(N)nc43)[C@H](O)[C@@H]2O)[C@@H](COP(=O)(O)OP(=O)(O)OP(=O)(O)OC[C@H]2O[C@@H](n3c[n+](Cc4ccccn4)c4c(=O)[nH]c(N)nc43)[C@H](O)[C@@H]2O)O[C@H]1n1cnc2c(N)ncnc21 [PyCap1, Guanosine N7-(pyridin-2-ylmethyl) trinucleotide Cap1 analog] | – | antigen protein expression efficiency (HEK 293 cells; [1]): higher; antigen protein expression efficiency (HEK 293 cells; compared with CleanCap mRNA (Luc mRNA CAP1), in both mRNA using natural rNTPs and mRNA with pseudouridine triphosphate instead of rUTP, HEK 293, 24 hours): higher; antigen protein expression efficiency (HEK 293 cells; compared with CleanCap mRNA (Luc mRNA CAP1), in both mRNA using natural rNTPs and mRNA with pseudouridine triphosphate instead of rUTP, HEK 293, 24 hours, listed as PyCapl): more efficient
10 | CO[C@@H]1[C@H](OP(=O)(O)OC[C@H]2O[C@@H](n3cnc4c(=O)[nH]c(N)nc43)[C@H](O)[C@@H]2O)[C@@H](COP(=O)(O)OP(O)(=S)OP(=O)(O)OC[C@H]2O[C@@H](n3c[n+](Cc4ccccc4)c4c(=O)[nH]c(N)nc43)[C@H](O)[C@@H]2O)O[C@H]1n1cnc2c(N)ncnc21 (single isomer, unassigned) [^Bn7GppspAmpG (D1), Guanosine N7-benzyl β-phosphorothioate trinucleotide Cap1] | higher | –
11 | CO[C@@H]1[C@H](OP(=O)(O)OC[C@H]2O[C@@H](n3cnc4c(=O)[nH]c(N)nc43)[C@H](O)[C@@H]2O)[C@@H](COP(=O)(O)OP(O)(=S)OP(=O)(O)OC[C@H]2O[C@@H](n3c[n+](Cc4ccc(Cl)cc4)c4c(=O)[nH]c(N)nc43)[C@H](O)[C@@H]2O)O[C@H]1n1cnc2c(N)ncnc21 (single isomer, unassigned) [^4-ClBn7GppspAmpG (D1), Guanosine N7-4-Cl-benzyl β-phosphorothioate trinucleotide Cap1] | higher | –
12 | CO[C@@H]1[C@H](OP(=O)(O)OC[C@H]2O[C@@H](n3cnc4c(=O)[nH]c(N)nc43)[C@H](O)[C@@H]2O)[C@@H](COP(=O)(O)OP(O)(=S)OP(=O)(O)OC[C@H]2O[C@@H](n3c[n+](Cc4ccccc4)c4c(=O)[nH]c(N)nc43)[C@H](O)[C@@H]2O)O[C@H]1n1cnc2c(N)ncnc21 (single isomer, unassigned) [^Bn7GppspAmpG (D2), Guanosine N7-benzyl β-phosphorothioate trinucleotide Cap1] | higher | –
13 | CO[C@@H]1[C@H](OP(=O)(O)OC[C@H]2O[C@@H](n3cnc4c(=O)[nH]c(N)nc43)[C@H](O)[C@@H]2O)[C@@H](COP(=O)(O)OP(=O)(O)OP(=O)(O)OC[C@H]2O[C@@H](n3c[n+](Cc4ccccc4)c4c(=O)[nH]c(N)nc43)[C@H](O)[C@@H]2O)O[C@H]1n1cnc2c(NCc3ccccc3)ncnc21 [^Bn7Gppp^Bn6AmpG, Guanosine N^7, adenosine N^6-dibenzyl trinucleotide Cap1] | higher | –
